In one data set the test system is polymyositis. The data set can be described thus: Polymyositis in the same patient (Example 4). The data set is classed as in vivo, human. The following applies: 50 mg daily, before hyaluronate. Here is the method: A person suffering from colon cancer had been unable to tolerate their colostomy and demanded that their surgeon remove the colostomy and reconnect their colon. They refused chemotherapy. They were given a formulation of 1% sodium hyaluronate (Collaborative Laboratories, Inc) which was prepared with a mixture of molecular weights of hyaluronate (as described in EXAMPLE 1). When they began taking the hyaluronate preparation, their CEA was 70.1. They have taken the hyaluronate at a dose of 10 mg three times per day mucosally and after 6 months of treatment their CEA has dropped to 4.1. They have taken no other treatments. This patient had also suffered from polymyositis for approximately 15 years. For this condition they were taking 50 mg of Prednisone daily with little relief. […] After 6 months of treatment with hyaluronate, they have been able to reduce their Prednisone to 5 mg every other day. […] The polymyositis that was successfully treated in this example was thought to represent treatment of a disease associated with the adhesion cascade or autoimmune disease.

Data set [1] concerns attention deficit disorder (ADD). The data set can be described thus: Adult with attention deficit disorder, daily response (Example 5, FIG. 1). The data set is classed as in vivo, human. The note with it: earlier treatment. The text has this: The subject adult was a person who had suffered all their life with attention deficit disorder (ADD).
They never knew what their problem was until recently when they were diagnosed. They described their childhood as unfocused and explained that they felt as though they were in a constant mental fog—unable to think clearly, or for that matter, unable to focus on a thought at all. […] Exposure to only a few minutes in a moldy room caused this individual to become dazed, unable to think, focus or even stay awake. They had only been able to do menial jobs. They spent most of their time staring out the window with no thoughts in their mind and, even if they tried, could not focus on a thought or task. They described themself as believing all their life that they were just stupid and unable to learn. They had been to multiple physicians and psychiatrists seeking treatment with no success. They had taken Ritalin with little relief. It allowed them to function partially but they were always tired and unable to focus on anything but the simplest of tasks. They agreed to take the oral sodium hyaluronate product and their family would report how they reacted. […]
FIG. 1 plots the response of this patient while taking the compositions of the present invention. […] If there were no significant negative or positive responses during a day, the reaction rate was recorded as 0. […]

Data set [2] relates to Attention Deficit Hyperactivity Disorder (ADHD) complicated by Turret's Syndrome. The data set can be described thus: Treatment of a child with ADHD complicated by Turret's Syndrome (Example 2). Format: in vivo, human. The following applies: earlier treatment, discontinued 1.5 year before. As to the method: This treatment was not complicated by concurrent treatment with drugs such as Ritalin as their parents were adverse to using this medication. Therefore, any response observed was related to the use of the complex carbohydrates of the present invention. They took 10 mg in the morning and 10 mg in the evening, using the solution as a mouthwash (holding it in their mouth for about 10 to 20 seconds and then swallowing). […] However, within 15 minutes of their receiving the missing dose, they became calm and returned to normal. This child has remained totally under control for 6 months. This had never been observed before, even when they were taking Ritalin. […] It has been concluded that a disease typically thought to be related to a nervous disorder or to allergies was treatable by the complex carbohydrates of the present invention.

A further data set deals with ADHD. Briefly: child with ADHD, behaviour scores (Example 7, FIG. 2). The note with it: prescribed daily, earlier treatment. Format: in vivo, human. The text has this:
The subject child was a person who has suffered with ADHD all their life. […] Additionally, their behavior was such that they could not socialize with other children or with adults. When in contact with other children they were unable to play, often became angered and caused physical harm to others. They had been under treatment by several physicians, psychologists and allergists all their life but none were able to help their condition. The allergists determined that they had allergies to most all foods, dust, molds, soaps and just about everything in their environment. At one time they were prescribed Ritalin daily. […]
This child attended a special school in which their Teachers reported their daily activity to their parents so that they could try to monitor their eating habits. […] Their response was monitored by using the numerical score provided by their teachers and averaging it with a numerical score of their behavior at home provided by their parents. […] Their parents have commented that they have awakened in the morning and is happy, cheerful and cooperative in getting ready for school. […] If their behavior was belligerent, bossy, angry or non-cooperative they were scored as a −40 for the day. If their reactions to foods or environmental stimuli produced such a response it was recorded as a −40. If they responded as a normal person, the score was recorded as 0. […]

Another data set relates to interstitial cystitis. Briefly: Interstitial cystitis patient (Example 8). Format: in vivo, human. The note with it: 100 mg per day of macrodantin and 20 mg per day of feldene, earlier treatment.
For the next data set, the system named is chronic eczema. The data set can be described thus: Chronic eczema with yeast infection (Example 14). The note with it: in vivo. Also on record: species or system human. The text has this:
A person suffered from chronic eczema—scaly and red areas on their neck and arms. They had also been diagnosed with a yeast infection associated with the eczema. […] They initially used a topical preparation prepared according to this invention. This contained a mixture of low and high molecular weight sodium hyaluronate (prepared as in EXAMPLE 1) mixed with 1% Wintergreen Oil, 1% Spearmint Oil, and 0.5% Peppermint Oil. They applied it topically for four weeks. […] However, there was still itching and redness. They then began to orally take the 1% mixture, of low and high molecular weight sodium hyaluronate described in example 1. They reported that within 2 weeks all signs of the eczema had disappeared, the itching was gone and they felt better than they had felt for years. The oral dose required was 5 mg TID for this 91 pound person. Therefore, the dose was […].

A further data set relates to lick granulomas. The data set can be described thus: Lick granuloma of a Labrador retriever (Example 12). Format: in vivo, dog. The following applies: cortisone injections and hydrocortisone creams. As to the method: An eleven year old Labrador retriever had suffered from lick granulomas for at least 3 years. […] This dog's granuloma was located on the left hind leg above the pasturn. The swelling around the leg measured 8 inches in diameter and the open wound measured 4×3 inches. […] This dog was injected with 10 mg of sodium hyaluronate having a molecular weight ranging from 30,000 to 400,000 (1.0 mL intramuscularly—equivalent to 10 mg). The open wound began to heal. This injection was followed up with topical application of a low molecular weight hyaluronic acid prepared by making a 1% (wt/vol) solution of hyaluronic acid (Medex Ltd) containing 1% Wintergreen Oil (Loranne Oil), 1% Spearmint Oil (Loranne Oil) and 0.5% Peppermint Oil (Loranne Oil). The topical formulation was applied at least two times per day. […] The dog has not licked this area since treatment began. Therefore, the complex carbohydrates of the present invention are able to successfully treat lick granulomas (a previously untreatable condition of dogs) and eliminate the cause of the licking.

A further data set deals with joint pain. The following applies: oral doses between 1000 and 3000 mg/day (>15 mg/Kg); cited from earlier work.
The test system of another data set is anti-coagulant activity. The note with it: cited from earlier work.

Experimental for interstitial cystitis: Additionally, they had taken 200 mg TID of Elmiron to reduce the inflammation in the bladder lining. […] In order to sleep they took Prosed/DS, Ultram, Hydroxyzine HCl, Cardura, Amitriptyline. Sometimes all were taken at some time during the day or night. […] This patient was supplied with the mixed molecular weight preparation of sodium hyaluronate as described in EXAMPLE 1. They were also supplied with a topical preparation containing 1% wt/vol. Sodium hyaluronate at a molecular weight of <30,000 combined with 1% Oil of Wintergreen, 0.5% Spearmint Oil and 0.2% Peppermint Oil. They took 10 mg of the oral preparation 4 times per day. The last dose was taken before going to bed. Additionally, at bedtime, they rubbed their lower abdomen (over the bladder) with the topical preparation.

For `C[C@]12C=CC(=O)C=C1CC[C@@H]1[C@@H]2C(=O)C[C@@]2(C)[C@H]1CC[C@]2(O)C(=O)CO` [Prednisone], in the data set with polymyositis, the relief of polymyositis entry is listed as “little relief”.
Regarding `COC(=O)C(c1ccccc1)C1CCCCN1` (centres unmarked) [Ritalin], in data set [1], the “relief of ADD” value is “little relief”. Further, in data set [2], the side effects entry is recorded as “problems with side effects”. In addition, the “reaction while taking the drug” value in the data set on ADHD is “suffered hallucinations and became even more uncontrollable”.
Turning to `O=C1CN(/N=C/c2ccc([N+](=O)[O-])o2)C(=O)N1` [macrodantin], the side effects entry in the data set with interstitial cystitis is listed as “severe side effects”.
Regarding `C[C@]12CCC(=O)C=C1CC[C@@H]1[C@@H]2C(=O)C[C@@]2(C)[C@H]1CC[C@]2(O)C(=O)CO` [cortisone], in the data set on chronic eczema, the “effect of earlier treatment on eczema” value is on record as “no significant effect”. Besides, the “success of earlier treatment of lick granuloma” value with lick granulomas was “little success”.
As for `CN1C(C(=O)Nc2ccccn2)=C(O)c2ccccc2S1(=O)=O` [feldene], the side effects entry in the data set on interstitial cystitis is recorded as “severe side effects”.
For chondroitin sulfate, the “time until relief from joint pain” value in the data set with joint pain is on record as 6-9 months.
For the compound `C[C@]12CCC(=O)C=C1CC[C@@H]1[C@@H]2[C@@H](O)C[C@@]2(C)[C@H]1CC[C@]2(O)C(=O)CO` [hydrocortisone], the “success of earlier treatment of lick granuloma” value in the data set on lick granulomas is on record as “little success”.
Consider low molecular weight heparin, for which, in the data set on anti-coagulant activity, the anti-coagulant activity entry is listed as “free of anti-coagulant activity”.

The record behind these values is US8367642B2, “Methods of preventing or treating diseases and conditions using complex carbohydrates” (Dermal Research Laboratories, Inc., priority 2000, dated 2013).
